{
  "source": "ChEMBL document CHEMBL4334516",
  "about": "“Kinase Chemodiversity from the Arctic: The Breitfussins” (J Med Chem, 2019)",
  "key": {"[1]": {"molecular_target": "Serine/threonine-protein kinase 36 (Homo sapiens, UniProt Q9NRP7)", "test": "Binding affinity to wild-type human partial length STK36 (M1 to T271 residues) expressed in bacterial expression system by active-site directed competition binding assay based Kinomescan method"}, "[2]": {"test": "Toxicity in zebrafish embryos assessed as induction of general edema by measuring unaffected embryos level at 1.4 uM after 72 hrs (reference value: 100%)", "set-up": "species or system Danio rerio", "settings": "in vivo"}, "[3]": {"system": "MDA-MB-468", "test": "Cytotoxicity in human MDA-MB-468 cells assessed as reduction in cell viability incubated for 72 hrs by SRB assay", "settings": "MDA-MB-468, 72 h"}, "[4]": {"molecular_target": "Non-receptor tyrosine-protein kinase TYK2 (Homo sapiens, UniProt P29597)", "test": "Binding affinity to wild-type human partial length TYK2 JH2 domain-pseudokinase expressed in mammalian expression system by active-site directed competition binding assay based Kinomescan method"}, "[5]": {"test": "Toxicity in zebrafish embryos assessed as survival at 14 uM after 72 hrs (reference value: 95%)", "set-up": "species or system Danio rerio", "settings": "in vivo"}, "[6]": {"molecular_target": "Serine/threonine-protein kinase SIK3 (Homo sapiens, UniProt Q9Y2K2)", "test": "Binding affinity to wild-type human partial length SIK3 (A90 to L395 residues) expressed in mammalian expression system assessed as residual binding level at 10 uM by active-site directed competition binding assay based Kinomescan method relative to control"}, "[7]": {"test": "Stability in human liver microsomes supplemented with UDP-glucuronic acid assessed as parent compound remaining level at 5 uM incubated for 1 hr by LC-MS analysis", "type": "ADME, Microsome", "settings": "read-out: Stability"}, "[8]": {"molecular_target": "T1, Serine/threonine-protein kinase pim-1 (Homo sapiens, UniProt P11309)", "T1 sequence (P11309 whole entry, looked up)": "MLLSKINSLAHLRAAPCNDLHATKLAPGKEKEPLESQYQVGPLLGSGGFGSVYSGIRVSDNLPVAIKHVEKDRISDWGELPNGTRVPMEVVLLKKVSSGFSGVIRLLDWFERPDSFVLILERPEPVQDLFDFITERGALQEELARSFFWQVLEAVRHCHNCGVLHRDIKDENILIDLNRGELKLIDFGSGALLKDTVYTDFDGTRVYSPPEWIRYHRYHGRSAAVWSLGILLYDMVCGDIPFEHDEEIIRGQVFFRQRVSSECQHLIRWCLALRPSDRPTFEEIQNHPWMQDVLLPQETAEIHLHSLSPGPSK", "test": "Inhibition of PIM1 (unknown origin) assessed as residual enzyme activity at 50 uM by [33P]-ATP filter binding kinase assay relative to control"}, "[9]": {"system": "MDA-MB-231", "test": "Cytotoxicity in human MDA-MB-231 cells assessed as reduction in cell viability incubated for 72 hrs by SRB assay", "settings": "MDA-MB-231, 72 h"}, "[10]": {"test": "Stability in human plasma assessed as parent compound remaining level at 5 uM incubated for 1 hr by LC-MS analysis", "type": "ADME, cell-free", "settings": "read-out: Stability"}, "[11]": {"test": "Toxicity in zebrafish embryos at 0.1 to 1396 uM after 72 hrs", "set-up": "species or system Danio rerio", "settings": "in vivo, read-out: LD50"}, "[12]": {"molecular_target": "Aurora kinase A (Homo sapiens) (UniProt O14965)", "sequence (O14965 whole entry, the tested form may be a part)": "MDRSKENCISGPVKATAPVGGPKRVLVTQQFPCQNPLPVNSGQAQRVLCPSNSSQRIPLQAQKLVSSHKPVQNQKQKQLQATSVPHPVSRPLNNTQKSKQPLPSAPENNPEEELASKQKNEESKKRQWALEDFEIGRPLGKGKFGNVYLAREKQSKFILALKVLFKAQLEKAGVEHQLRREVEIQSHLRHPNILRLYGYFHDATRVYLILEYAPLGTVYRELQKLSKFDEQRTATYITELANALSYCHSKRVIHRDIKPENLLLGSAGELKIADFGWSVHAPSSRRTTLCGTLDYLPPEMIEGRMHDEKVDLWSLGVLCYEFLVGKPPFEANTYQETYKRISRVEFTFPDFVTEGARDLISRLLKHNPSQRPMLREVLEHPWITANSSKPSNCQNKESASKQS", "test": "Binding affinity to wild-type human partial length AURKA (E122 to K401 residues) expressed in mammalian expression system assessed as residual binding level at 10 uM by active-site directed competition binding assay based Kinomescan method relative to control"}, "[13]": {"molecular_target": "Tyrosine-protein kinase JAK1 (Homo sapiens, UniProt P23458)", "sequence (P23458 whole entry, the tested form may be a part)": "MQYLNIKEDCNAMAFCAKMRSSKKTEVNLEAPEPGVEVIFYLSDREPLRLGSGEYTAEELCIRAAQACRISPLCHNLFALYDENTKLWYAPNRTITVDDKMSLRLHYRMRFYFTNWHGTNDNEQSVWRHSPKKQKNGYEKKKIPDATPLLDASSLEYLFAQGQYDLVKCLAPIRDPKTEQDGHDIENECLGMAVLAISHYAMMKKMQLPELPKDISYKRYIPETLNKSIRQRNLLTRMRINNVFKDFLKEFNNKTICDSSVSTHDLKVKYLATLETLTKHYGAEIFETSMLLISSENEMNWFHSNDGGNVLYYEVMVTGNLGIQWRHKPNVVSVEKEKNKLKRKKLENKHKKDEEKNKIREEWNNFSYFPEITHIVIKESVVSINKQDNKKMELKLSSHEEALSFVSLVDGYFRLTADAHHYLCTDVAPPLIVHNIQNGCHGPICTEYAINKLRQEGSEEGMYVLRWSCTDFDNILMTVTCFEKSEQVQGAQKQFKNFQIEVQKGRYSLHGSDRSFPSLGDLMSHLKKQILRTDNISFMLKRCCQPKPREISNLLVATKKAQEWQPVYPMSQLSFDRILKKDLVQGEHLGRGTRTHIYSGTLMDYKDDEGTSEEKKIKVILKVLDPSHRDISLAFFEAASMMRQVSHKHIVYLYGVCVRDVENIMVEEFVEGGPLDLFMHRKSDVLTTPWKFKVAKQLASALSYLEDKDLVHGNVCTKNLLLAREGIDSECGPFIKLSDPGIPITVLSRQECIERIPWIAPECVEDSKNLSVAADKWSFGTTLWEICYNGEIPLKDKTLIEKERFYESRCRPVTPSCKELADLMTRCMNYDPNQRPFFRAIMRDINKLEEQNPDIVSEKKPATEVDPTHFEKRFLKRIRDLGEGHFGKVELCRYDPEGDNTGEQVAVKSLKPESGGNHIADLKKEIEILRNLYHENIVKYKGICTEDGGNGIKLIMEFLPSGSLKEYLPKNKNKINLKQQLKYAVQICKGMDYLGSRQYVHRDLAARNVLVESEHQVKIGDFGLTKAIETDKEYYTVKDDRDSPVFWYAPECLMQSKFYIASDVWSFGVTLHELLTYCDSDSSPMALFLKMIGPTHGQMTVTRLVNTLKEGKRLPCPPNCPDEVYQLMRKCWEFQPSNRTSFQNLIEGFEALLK", "test": "Binding affinity to wild-type human partial length JAK1 JH2 domain-pseudokinase expressed in bacterial expression system by active-site directed competition binding assay based Kinomescan method"}, "[14]": {"test": "Cytotoxicity in human MT3 cells assessed as reduction in cell viability incubated for 72 hrs by SRB assay", "settings": "MT-3, 72 h"}, "[15]": {"test": "Unbound fraction in human plasma at 5 uM incubated for 6 hrs at 37 degC by LC-MS analysis based equilibrium dialysis", "type": "ADME, cell-free"}, "[16]": {"molecular_target": "Dual specificity tyrosine-phosphorylation-regulated kinase 1A (Homo sapiens, UniProt Q13627)", "test": "Binding affinity to wild-type human partial length DYRK1A (H129 to S509 residues) expressed in mammalian expression system assessed as residual binding level at 10 uM by active-site directed competition binding assay based Kinomescan method relative to control"}, "[17]": {"molecular_target": "Myosin light chain kinase family member 4 (Homo sapiens) (UniProt Q86YV6)", "sequence (Q86YV6 whole entry, the tested form may be a part)": "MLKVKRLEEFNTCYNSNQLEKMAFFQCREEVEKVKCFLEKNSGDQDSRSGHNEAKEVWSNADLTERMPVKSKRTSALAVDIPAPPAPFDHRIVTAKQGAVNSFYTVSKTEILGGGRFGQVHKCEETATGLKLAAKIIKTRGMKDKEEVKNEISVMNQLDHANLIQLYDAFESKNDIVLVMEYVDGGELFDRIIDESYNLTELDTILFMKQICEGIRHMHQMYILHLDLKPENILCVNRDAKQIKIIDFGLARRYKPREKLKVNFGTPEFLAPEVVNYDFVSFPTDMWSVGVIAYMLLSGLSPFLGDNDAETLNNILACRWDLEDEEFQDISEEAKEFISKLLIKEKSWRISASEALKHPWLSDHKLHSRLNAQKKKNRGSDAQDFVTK", "test": "Binding affinity to wild-type human partial length MYLK4 (V79 to S380 residues) expressed in bacterial expression system assessed as residual binding level at 10 uM by active-site directed competition binding assay based Kinomescan method relative to control"}, "[18]": {"system": "MDA-MB-436", "test": "Cytotoxicity in human MDA-MB-436 cells assessed as reduction in cell viability incubated for 72 hrs by SRB assay", "settings": "MDA-MB-436, 72 h"}, "[19]": {"molecular_target": "T1, Serine/threonine-protein kinase pim-1", "test": "Inhibition of PIM1 (unknown origin) assessed as residual enzyme activity at 1 uM by [33P]-ATP filter binding kinase assay relative to control"}, "[20]": {"molecular_target": "Citron Rho-interacting kinase (Homo sapiens, UniProt O14578)", "sequence (O14578 whole entry, the tested form may be a part)": "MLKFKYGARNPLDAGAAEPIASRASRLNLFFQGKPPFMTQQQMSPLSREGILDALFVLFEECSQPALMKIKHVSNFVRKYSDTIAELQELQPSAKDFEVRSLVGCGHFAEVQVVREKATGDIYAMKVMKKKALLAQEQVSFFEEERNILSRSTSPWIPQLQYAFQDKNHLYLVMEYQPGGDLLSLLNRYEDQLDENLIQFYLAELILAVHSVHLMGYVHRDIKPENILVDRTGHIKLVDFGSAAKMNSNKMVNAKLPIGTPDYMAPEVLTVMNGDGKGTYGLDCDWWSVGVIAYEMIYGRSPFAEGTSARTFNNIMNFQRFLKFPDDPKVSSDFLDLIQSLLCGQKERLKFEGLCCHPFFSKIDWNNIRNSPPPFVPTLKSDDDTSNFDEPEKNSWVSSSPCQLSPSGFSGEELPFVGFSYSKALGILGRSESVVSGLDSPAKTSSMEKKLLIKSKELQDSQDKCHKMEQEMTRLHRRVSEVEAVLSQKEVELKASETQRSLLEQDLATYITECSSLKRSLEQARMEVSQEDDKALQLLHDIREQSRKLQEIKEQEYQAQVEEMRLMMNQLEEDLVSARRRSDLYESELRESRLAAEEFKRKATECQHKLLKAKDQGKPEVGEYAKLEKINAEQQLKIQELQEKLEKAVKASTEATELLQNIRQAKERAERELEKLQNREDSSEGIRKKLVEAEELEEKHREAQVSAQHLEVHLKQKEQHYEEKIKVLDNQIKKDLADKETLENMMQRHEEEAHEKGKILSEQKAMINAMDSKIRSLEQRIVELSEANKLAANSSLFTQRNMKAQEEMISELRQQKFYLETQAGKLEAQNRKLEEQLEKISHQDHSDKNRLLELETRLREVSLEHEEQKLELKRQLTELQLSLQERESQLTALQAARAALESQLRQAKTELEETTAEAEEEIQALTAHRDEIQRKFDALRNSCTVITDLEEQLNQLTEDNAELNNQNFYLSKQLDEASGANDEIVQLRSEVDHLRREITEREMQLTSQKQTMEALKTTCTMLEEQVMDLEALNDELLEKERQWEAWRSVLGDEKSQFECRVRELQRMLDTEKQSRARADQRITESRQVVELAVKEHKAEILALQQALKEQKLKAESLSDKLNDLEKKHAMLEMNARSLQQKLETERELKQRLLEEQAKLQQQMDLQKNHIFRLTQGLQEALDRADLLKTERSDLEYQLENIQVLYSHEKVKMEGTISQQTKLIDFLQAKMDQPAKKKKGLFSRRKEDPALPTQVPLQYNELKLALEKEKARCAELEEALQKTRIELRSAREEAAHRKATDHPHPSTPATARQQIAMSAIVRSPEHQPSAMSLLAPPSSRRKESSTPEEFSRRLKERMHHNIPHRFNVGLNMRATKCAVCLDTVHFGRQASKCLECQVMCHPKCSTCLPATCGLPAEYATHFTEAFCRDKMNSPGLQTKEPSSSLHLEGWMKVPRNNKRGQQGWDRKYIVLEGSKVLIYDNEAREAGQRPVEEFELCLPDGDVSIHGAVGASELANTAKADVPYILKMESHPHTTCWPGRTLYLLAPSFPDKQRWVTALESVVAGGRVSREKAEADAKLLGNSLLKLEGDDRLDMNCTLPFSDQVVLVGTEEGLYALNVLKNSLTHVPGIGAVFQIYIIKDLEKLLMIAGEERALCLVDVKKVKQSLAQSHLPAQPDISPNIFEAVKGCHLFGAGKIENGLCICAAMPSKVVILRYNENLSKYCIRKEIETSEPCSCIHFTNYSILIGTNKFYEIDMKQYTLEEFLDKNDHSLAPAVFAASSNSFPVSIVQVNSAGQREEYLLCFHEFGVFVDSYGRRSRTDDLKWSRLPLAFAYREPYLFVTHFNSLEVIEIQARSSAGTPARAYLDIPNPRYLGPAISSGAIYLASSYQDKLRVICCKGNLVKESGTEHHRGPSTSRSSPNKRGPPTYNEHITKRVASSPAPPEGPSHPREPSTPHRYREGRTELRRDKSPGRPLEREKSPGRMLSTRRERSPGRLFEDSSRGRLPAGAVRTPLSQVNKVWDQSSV", "test": "Binding affinity to wild-type human partial length CIT (M68 to E432 residues) expressed in bacterial expression system by active-site directed competition binding assay based Kinomescan method"}, "[21]": {"system": "BT-20", "test": "Cytotoxicity in human BT20 cells assessed as reduction in cell viability incubated for 72 hrs by SRB assay", "settings": "BT-20, 72 h"}, "[22]": {"molecular_target": "Serine/threonine-protein kinase 17B (Homo sapiens) (UniProt O94768)", "sequence (O94768 whole entry, the tested form may be a part)": "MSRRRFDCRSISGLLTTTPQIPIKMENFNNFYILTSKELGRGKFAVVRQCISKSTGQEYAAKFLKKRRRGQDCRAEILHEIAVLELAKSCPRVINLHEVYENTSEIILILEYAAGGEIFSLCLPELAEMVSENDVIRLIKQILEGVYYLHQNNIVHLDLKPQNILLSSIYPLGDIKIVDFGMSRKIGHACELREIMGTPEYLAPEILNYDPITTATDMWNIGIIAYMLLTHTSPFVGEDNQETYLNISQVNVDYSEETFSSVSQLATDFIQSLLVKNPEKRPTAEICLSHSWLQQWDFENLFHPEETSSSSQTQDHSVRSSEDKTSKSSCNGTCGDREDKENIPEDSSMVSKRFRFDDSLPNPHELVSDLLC", "test": "Binding affinity to wild-type human full length DRAK2 (M1 to C372 residues) expressed in bacterial expression system assessed as residual binding level at 10 uM by active-site directed competition binding assay based Kinomescan method relative to control"}, "[23]": {"molecular_target": "Receptor-interacting serine/threonine-protein kinase 2 (Homo sapiens, UniProt O43353)", "test": "Inhibition of RIPK2 (unknown origin) assessed as residual enzyme activity at 1 uM by [33P]-ATP filter binding kinase assay relative to control"}, "[24]": {"molecular_target": "3',5'-cyclic-AMP phosphodiesterase 4D (Homo sapiens) (UniProt Q08499)", "test": "Inhibition of human recombinant phosphodiesterase type 4D2 using [3H]cAMP and cAMP incubated for 20 mins by scintillation counting method"}, "[25]": {"molecular_target": "Receptor-type tyrosine-protein kinase FLT3 (Homo sapiens, UniProt P36888, N841I)", "test": "Binding affinity to human partial length FLT3 N841I mutant (V592 to Y969 residues) expressed in bacterial expression system by active-site directed competition binding assay based Kinomescan method"}, "[26]": {"molecular_target": "Cyclin-G-associated kinase (Homo sapiens, UniProt O14976)", "test": "Binding affinity to wild-type human partial length GAK (G13 to Y338 residues) expressed in bacterial expression system by active-site directed competition binding assay based Kinomescan method"}, "[27]": {"test": "Toxicity in zebrafish embryos assessed as survival at 1.4 uM after 72 hrs (reference value: 95%)", "set-up": "species or system Danio rerio", "settings": "in vivo"}, "[28]": {"molecular_target": "cGMP-specific 3',5'-cyclic phosphodiesterase (Homo sapiens, UniProt O76074)", "test": "Inhibition of human recombinant phosphodiesterase type 5 using [3H]cGMP and cGMP incubated for 60 mins by scintillation counting method", "settings": "1 h"}, "[29]": {"test": "Stability in mouse liver microsomes supplemented with UDP-glucuronic acid assessed as parent compound remaining level at 5 uM incubated for 1 hr by LC-MS analysis", "type": "ADME, Microsome", "settings": "read-out: Stability"}, "[30]": {"test": "Solubility in assay media (PTU-E3 water)", "type": "physicochemical", "settings": "buffer"}, "[31]": {"system": "SK-BR-3", "test": "Cytotoxicity in human SK-BR-3 cells assessed as reduction in cell viability incubated for 72 hrs by SRB assay", "settings": "SK-BR-3, 72 h"}, "[32]": {"test": "Toxicity in zebrafish embryos assessed as induction of scoliosis by measuring unaffected embryos level at 14 uM after 72 hrs (reference value: 100%)", "set-up": "species or system Danio rerio", "settings": "in vivo"}, "[33]": {"test": "Toxicity in zebrafish embryos assessed as survival at 0.1 uM after 72 hrs (reference value: 95%)", "set-up": "species or system Danio rerio", "settings": "in vivo"}, "[34]": {"molecular_target": "Mitogen-activated protein kinase kinase kinase 9 (Homo sapiens, UniProt P80192)", "test": "Inhibition of MLK1 (unknown origin) assessed as residual enzyme activity at 5 uM by [33P]-ATP filter binding kinase assay relative to control"}},
  "note": "Calls of active or inactive are those of the source. No cut-off for these calls is given here.",
  "data": [
    {"smiles": "COc1cc2c(-c3cnc(-c4ccc[nH]4)o3)c[nH]c2cc1Br", "values": [
      {"measurement": "Kd", "setting": "[1]", "value": 2.7, "unit": "µM"},
      {"measurement": "Activity", "setting": "[2]", "value": 100, "unit": "%"},
      {"measurement": "IC50", "setting": "[3]", "value": 0.34, "unit": "µM"},
      {"measurement": "Kd", "setting": "[4]", "value": 1.8, "unit": "µM"},
      {"measurement": "survival at 72 h, 14 µM", "setting": "[5]", "value": 5, "unit": "%"},
      {"measurement": "Activity", "setting": "[6]", "value": 94, "unit": "%"},
      {"measurement": "remaining at 1 h, 5 µM", "setting": "[7]", "value": 92, "unit": "%"},
      {"measurement": "Activity", "setting": "[8]", "value": 2, "unit": "%"},
      {"measurement": "IC50", "setting": "[9]", "value": "> 30", "unit": "µM"},
      {"measurement": "remaining at 1 h, 5 µM", "setting": "[10]", "value": 83, "unit": "%"},
      {"measurement": "LC50 at 72 h", "setting": "[11]", "value": 1.4, "unit": "µM"},
      {"measurement": "Activity", "setting": "[12]", "value": 80, "unit": "%"},
      {"measurement": "Kd", "setting": "[13]", "value": 1, "unit": "µM"},
      {"measurement": "IC50", "setting": "[14]", "value": 0.93, "unit": "µM"},
      {"measurement": "Fu", "setting": "[15]", "value": 0.3, "unit": "%"},
      {"measurement": "Activity", "setting": "[16]", "value": 75, "unit": "%"},
      {"measurement": "Activity", "setting": "[17]", "value": 0.25, "unit": "%"},
      {"measurement": "IC50", "setting": "[18]", "value": "> 30", "unit": "µM"},
      {"measurement": "Activity", "setting": "[19]", "value": 6, "unit": "%"},
      {"measurement": "Kd", "setting": "[20]", "value": 2.7, "unit": "µM"},
      {"measurement": "IC50", "setting": "[21]", "value": "> 30", "unit": "µM"},
      {"measurement": "Activity", "setting": "[22]", "value": 1.2, "unit": "%"},
      {"measurement": "Activity", "setting": "[23]", "value": 41, "unit": "%"},
      {"measurement": "inhibition", "setting": "[24]", "value": "Active"},
      {"measurement": "Kd", "setting": "[25]", "value": 8.9, "unit": "µM"},
      {"measurement": "Kd", "setting": "[26]", "value": 0.44, "unit": "µM"},
      {"measurement": "survival at 72 h, 1.4 µM", "setting": "[27]", "value": 45, "unit": "%"},
      {"measurement": "inhibition (INH)", "setting": "[28]", "value": "Active"},
      {"measurement": "remaining at 1 h, 5 µM", "setting": "[29]", "value": 100, "unit": "%"},
      {"measurement": "solubility", "setting": "[30]", "value": "Insoluble"},
      {"measurement": "IC50", "setting": "[31]", "value": 1.5, "unit": "µM"},
      {"measurement": "Activity", "setting": "[32]", "value": 0, "unit": "%"},
      {"measurement": "survival at 72 h, 0.1 µM", "setting": "[33]", "value": 100, "unit": "%"}
    ]},
    {"smiles": "COc1cc(Br)cc2[nH]cc(-c3cnc(-c4ccc[nH]4)o3)c12", "values": [
      {"measurement": "Activity", "setting": "[34]", "value": 7, "unit": "%"}
    ]}
  ]
}
